Measurements published in US7122326B2 (Universite Louis Pasteur, priority 2001, dated 2006).
“Also recorded” adds a separate entry of the source. Like-named read-outs stand apart in the source and are kept apart here.

Legend:
[1] = tested on: xanthurenic acid binding site(s); assay: [3H]-XA binding to synaptic membranes, without ions; parameters: species or system rat; settings: for [^3H]-XA binding displacement, screening: screening at 200 μM concentration
XA transport system = assay: XA transport in differentiated NCB-20 cells; type: cell-based
Method: The cell culture was prepared by using a culture dish of NCB-20 cells at 80% confluence. The culture medium was removed and replaced with 10 ml of DMEM supplemented with 10% FCS. Cells were then detached and suspended by repeated passage of the medium through a 2 mm gauge needle. Cells were then counted in a hemocytometer. The final suspension was adjusted to a cell density of 3.10^4 cells/ml in DMEM medium supplemented with 10% FCS and 1 mM cAMP. Petri dishes were seeded with 2 ml of this suspension and incubated at 37° C. in a moisture-saturated CO2 atmosphere. Cells were used four days after inoculation.
The culture medium of 4-day NCB-20 cell cultures differentiated in cAMP was replaced by one of the buffer solutions described hereinabove (Krebs with or without Na^+, to respectively evaluate Na^+-dependent active transport and passive transport, which occurs mainly through diffusion) according to the type of experiment planned. Culture dishes were placed in a water bath at 37° C. for 10 minutes. The buffer was then replaced by the same buffer solution containing [^3H]-XA and XA at concentrations ranging from […]. [^3H]-XA was present at very low concentration and served only as a tracer of the cold (non-radiolabelled) XA. After 1 minute of incubation, the solutions were aspirated and the cells washed three times for 10 seconds with 1 ml of the same buffer (Krebs with or without Na^+), kept on ice. Active transport requires energy (ATP) and is markedly slowed at temperatures below 37° C. The washed cell layer was frozen in dishes then, the next day, distilled water was added to obtain a solution of cellular debris containing the intracellular radiolabel ([^3H]-XA). Freezing facilitated homogenization by repeated passage of the solution through a pipette. A 900 μl aliquot was added to scintillation fluid (Rotiszint®, 4 ml). The remainder of the solution was sampled to assay protein by the BCA method (Uptima). The radioactivity measured in the scintillation counter was converted by means of a suitable calibration curve into picomoles of XA taken up by the cells per mg of protein.
For each incubation time, transport was measured on nine dishes of NCB-20 cells with Na^+ and without Na^+. Ten different time points were studied: 0-10-30 seconds and 1, 2, 3, 5, 8, 10, 12 minutes. Four different experiments were carried out.
For each XA concentration, XA transport was measured on nine dishes of NCB-20 cells with Na^+ and nine dishes without Na^+. Seven different concentrations were tested: 1-5-12.5-25-50-100-200 μM. Four independent experiments were carried out.
Four milliliters of scintillator were added to the tubes containing 900 μl of the cell suspension obtained. The control tube contained 900 μl of doubly-distilled water, and the tubes used to measure specific activity contained 10 μl of the radioactive solutions used as reagent during the experiment and 890 μl of doubly-distilled water. The tubes were closed, vortexed and left overnight at 4° C. before being counted in the scintillation counter. This count measures intracellular radioactivity which is directly proportional to the quantity of XA that entered the cell through passive or active transport. To calculate the amount of active transport, passive transport (Krebs without Na^+) is simply subtracted from total transport (Krebs with Na^+).
Other endogenous molecules which might be transported by the XA transporter were tested. […] The results are shown in the histogram in FIG. 34 as the percentage entering the cells relative to transport in the presence of radiolabelled XA alone (=100%).

dopaminergic neurons = assay: Residual dopamine content after 6-OHDA lesion; type: in vivo, rat
XA release in the PFC = assay: XA release in prefrontal cortex, in vivo microdialysis; parameters: species or system rat
Method: Male Wistar rats weighing 350–400 g were used for the experiments. Animals were housed individually in plastic cages with a light/dark cycle of 7 a.m./7 p.m. and 7 p.m./7 a.m. Animals had access to food and water ad libitum. Animal experiments were conducted in strict accordance with the requirements of the European Directive of 24 Nov. 1986 (86/609/EEC).
The experiments were carried out using an L-shaped cannula with a 4 mm tip. A polycarbonate-polyether dialysis membrane (500 μm) with a 20 Kda cutoff was used. The dialysis membrane was inserted in the prefrontal cortex (PFC) while one of the tips of the bipolar stimulation electrode was implanted in the PFC and the other in the VTA. The procedure was performed under ketamine anesthesia.
The experiments were carried out in conscious animals, 24 to 72 hours after the surgery. The perfusion medium had the following composition: 147 mM NaCl, 1.2 mM CaCl2, 1.2 mM MgCl2, and 4.0 mM KCl, pH 6.5. In the case of stimulations at high potassium concentrations, sodium ion concentrations were lowered to the same value. In the case of stimulations in the absence of calcium ions, 2.0 mM EGTA was added to the dialysis medium. Dialysates were collected at a rate of 2 μl/min, every 5 minutes, and immediately stored in liquid nitrogen up to analysis.
These two compounds were quantitatively determined by HPLC chromatography with electrochemical detection. The chromatographic system consisted of a 25 cm×4.6 mm Hypersyl C18 column, maintained at constant temperature. The mobile phase was 0.05 M NaH2PO4 buffer+0.1 mM EDTA and 6% methanol. Peaks were identified by comparison with the retention times measured on calibration standard solutions.
The VTA was stimulated for a period of 10 minutes, with bursts of thirty 0.5-msec pulses for 100 millisec, intensity 100 or 200 μA and at a frequency of 25 Hz.

rat = assay: Rotations in rats with unilateral 6-OHDA lesions; type: in vivo; settings: 6-OHDA-lesioned rats, four weeks after lesion; apomorphine s.c. (0.1 and 1.0 mg/kg)
[2] = biological target: xanthurenic acid binding site(s); assay: Effect of ions on xanthurenic acid binding to synaptic membranes; parameters: species or system rat; settings: read-out: EC50 of ions on xanthurenic acid binding
[3] = biological target: xanthurenic acid binding site(s); assay: [3H]-XA binding to synaptic membranes in the presence of copper ions; parameters: species or system rat; settings: read-out: EC50 (50% effective concentration) on XA binding; Tris maleate pH 6.5, room temperature, 400 nM [^3H]-XA (+20 μM xanthurenic acid) (FIG. 17)
[4] = unilateral 6-OHDA lesion of VTA and SNc, ±SEM (n=3)

How did the “[^3H]-XA binding displacement, screening” value [1] turn out when Nc1c(O)cccc1C(=O)CC(N)C(=O)O (racemic) [3OH-D,L-kynurenin] was run?
The value was “None of these compounds caused significant displacement”.

O=CC[C@@H](O)[C@H](O)[C@H](O)CO [2-deoxyglucose] was tested. Which “decrease in XA transport” value (XA transport system; cellular energy production blocked (FIG. 34)) did it give?
The value was about 50%.

For Nc1c(O)cccc1C(=O)O [3-hydroxyanthranilic acid], which “[^3H]-XA binding displacement, screening” value [1] is on record?
Its value is “None of these compounds caused significant displacement”.

With N[C@@H](Cc1c[nH]c2ccc(O)cc12)C(=O)O [5-hydroxy-L-tryptophan] as the compound, how does the “[^3H]-XA binding displacement, screening” value [1] read?
Its value is “None of these compounds caused significant displacement”.

Which “residual dopamine content, damaged VTA —SNc” value (dopaminergic neurons; [4]) does the source give for Br.NCCc1cc(O)c(O)cc1O [6-OHDA, 6-hydroxydopamine hydrobromide] here?
Its value is 32±31 pmoles/g of wet tissue.

What about the “residual dopamine content, damaged striatum” value (dopaminergic neurons; [4]) of the same compound?
The value was 261±123 pmoles/g of wet tissue.

And the “change of dopamine content, damaged versus intact striatum” value (dopaminergic neurons; unilateral 6-OHDA lesion, p=0.0033)?
Its value is −98%.

And the “change of dopamine content, damaged versus intact VTA —SNc” value (dopaminergic neurons; unilateral 6-OHDA lesion, p=0.0157)?
Its value is −95%.

With [Cl-].[K+] [KCl] as the compound, how does the “XA release in the PFC extracellular medium, % of the baseline value” (XA release in the PFC; 100 mM KCl in the dialysis probe for 5 minutes, after 40 minutes) read?
The value was 250%.

Nc1ccccc1C(=O)C[C@H](N)C(=O)O [L-kynurenin] was tested. Which “[^3H]-XA binding displacement, screening” value [1] did it give?
Its value is “None of these compounds caused significant displacement”.

With N[C@@H](Cc1c[nH]c2ccccc12)C(=O)O [L-tryptophan] as the compound, how does the “inhibition of cellular transport of XA” value (XA transport system) read?
Its value is “good inhibitors; also recorded: inhibit this transport”.

For N[C@@H](Cc1ccc(O)cc1)C(=O)O [L-tyrosine], which “inhibition of cellular transport of XA” value (XA transport system; NCB-20 cells (FIG. 34)) is on record?
Its value is “good inhibitors”.

And the “inhibition of cellular transport of XA” value (XA transport system; NCB-20 cells (FIG. 34), listed as tyrosine)?
The value was “inhibit this transport”.

Nc1ncnc2nc[nH]c12 [adenine] was tested. Which “affinity for the xanthurenic acid site / inhibition of tritiated XA binding” value [1] did it give?
The value was “showed significant affinity for the xanthurenic acid site and inhibited the binding of tritiated XA”.

How did the “affinity for the xanthurenic acid site / inhibition of tritiated XA binding” value [1] turn out when Nc1ncnc2c1ncn2[C@@H]1O[C@H](COP(=O)(O)OP(=O)(O)O)[C@@H](O)[C@H]1O [adenosine diphosphate] was run?
Its value is “showed significant affinity for the xanthurenic acid site and inhibited the binding of tritiated XA”.

For Nc1ncnc2c1ncn2[C@@H]1O[C@H](COP(=O)(O)OP(=O)(O)OP(=O)(O)O)[C@@H](O)[C@H]1O [adenosine triphosphate], which “affinity for the xanthurenic acid site / inhibition of tritiated XA binding” value [1] is on record?
The value was “showed significant affinity for the xanthurenic acid site and inhibited the binding of tritiated XA”.

For Nc1ncnc2c1ncn2[C@@H]1O[C@H](CO)[C@@H](O)[C@H]1O [adenosine], which “affinity for the xanthurenic acid site / inhibition of tritiated XA binding” value [1] is on record?
The value was “showed significant affinity for the xanthurenic acid site and inhibited the binding of tritiated XA”.

How did the “number of controlateral rotations” value (rat) turn out when CN1CCc2cccc3c2[C@H]1Cc1ccc(O)c(O)c1-3 [apomorphine] was run?
Its value is 130±45 turns/15 minutes.

For [Cl][Cu][Cl] [copper ions, CuCl2], which EC50 ([2]; 50 mM Tris maleate pH 6.5, 0° C., 200 nM [^3H]-XA (FIG. 14)) is on record?
Its EC50 is about 100 µM.

And the EC50 [3]?
The EC50 was 33.4 µM.

With O=C(O)c1cc(=O)c2ccccc2[nH]1 [kynurenic acid] as the compound, how does the “[^3H]-XA binding displacement, screening” value [1] read?
Its value is “no displacement of [^3H]-XA from its binding site(s) but rather a potentiation of this binding”.

And the “inhibition of cellular transport of XA” value (XA transport system; NCB-20 cells (FIG. 34))?
Its value is “good inhibitors”.

With O=C(O)c1ccccn1 [picolinic acid] as the compound, how does the “[^3H]-XA binding displacement, screening” value [1] read?
Its value is “None of these compounds caused significant displacement”.

With NC1=N[C@H](O)[C@H]2[C@H]3O[C@]4(O)O[C@@H]([C@@H](O)[C@@]2(N1)[C@@H]4O)[C@]3(O)CO [tetrodotoxin] as the compound, how does the “XA release in PFC induced by electrical stimulation of the VTA” value (XA release in the PFC; rat, in vivo) read?
Its value is “completely blocked”.

For [Cl-].[Cl-].[Zn+2] [zinc ions, ZnCl2], which “potentiation of XA transport” value (XA transport system; ions present in the medium (FIG. 34)) is on record?
The value was “highly significant potentiation”.

And the EC50 ([2]; pH 6.5)?
Its EC50 is about 500 µM.

For veratrine, which “XA release in the PFC, % of baseline” value (XA release in the PFC; 50 μM in the probe for 20 minutes, after 20 minutes) is on record?
Its value is “approximately 600%”.
